# According to article PMC6934184, “Selective DNA-PKcs inhibition extends the therapeutic index of localized radiotherapy and chemotherapy” (The Journal of Clinical Investigation, 2019):
# Molecular target: T1, AXL R499C (Homo sapiens, UniProt P30530, R499C)
# T1 construct: purchased Thermo Fisher Scientific (Life Technologies) SelectScreen
# Assay: SelectScreen LanthaScreen
# Format: binding
# Conditions: read-out: % displacement
# Method in brief: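 SelectScreen broad panel; activity (Z'LYTE, Adapta) plus binding formats. ATP: Km app for CSF1R Z'LYTE; 10 for CAMK1 Adapta. Readout = % per kinase.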
# T1 sequence (P30530 26-894 R499C): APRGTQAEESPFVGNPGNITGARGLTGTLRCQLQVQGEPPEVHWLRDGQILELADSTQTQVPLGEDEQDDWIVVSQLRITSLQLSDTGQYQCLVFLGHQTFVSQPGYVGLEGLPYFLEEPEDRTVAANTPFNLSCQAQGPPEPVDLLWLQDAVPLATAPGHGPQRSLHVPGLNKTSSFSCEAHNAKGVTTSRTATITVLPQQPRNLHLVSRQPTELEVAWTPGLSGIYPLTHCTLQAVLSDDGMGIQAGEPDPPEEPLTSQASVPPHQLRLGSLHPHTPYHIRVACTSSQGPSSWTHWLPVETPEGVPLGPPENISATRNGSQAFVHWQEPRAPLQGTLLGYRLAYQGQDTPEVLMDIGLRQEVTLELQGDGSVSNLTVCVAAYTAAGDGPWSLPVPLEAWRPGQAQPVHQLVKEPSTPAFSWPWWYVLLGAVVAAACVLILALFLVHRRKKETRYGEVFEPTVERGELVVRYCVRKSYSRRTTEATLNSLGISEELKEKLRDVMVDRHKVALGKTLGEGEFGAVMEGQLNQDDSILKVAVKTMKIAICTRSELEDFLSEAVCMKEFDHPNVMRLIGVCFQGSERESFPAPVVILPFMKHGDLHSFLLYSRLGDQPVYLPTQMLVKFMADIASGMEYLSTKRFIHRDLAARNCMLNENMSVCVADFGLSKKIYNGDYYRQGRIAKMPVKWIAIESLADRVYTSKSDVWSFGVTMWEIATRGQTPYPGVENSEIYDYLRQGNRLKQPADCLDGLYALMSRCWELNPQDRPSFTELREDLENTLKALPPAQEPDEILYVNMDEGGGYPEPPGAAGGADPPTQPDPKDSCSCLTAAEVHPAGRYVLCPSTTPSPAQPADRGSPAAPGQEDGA
compound,measurement,value
CN(C(=O)CN1CCOCC1)c1ccc2sc3c(-c4cccc5c(=O)cc(N6CC7CCC(C6)O7)oc45)cccc3c2c1 [NU5455],inhibition at 1 µM,-2.7%
